In ChEMBL document CHEMBL5649165, “The E3 ligase Cbl-b and TAM receptors regulate cancer metastasis via natural killer cells” (Nature, 2014):
Activity calls are given as the source filed them. The rule behind the calls is not given here.

Columns and labels:
[1] = biological target: T1, Tyrosine-protein kinase Mer (Homo sapiens, UniProt Q12866)
T1 sequence (Q12866 whole entry): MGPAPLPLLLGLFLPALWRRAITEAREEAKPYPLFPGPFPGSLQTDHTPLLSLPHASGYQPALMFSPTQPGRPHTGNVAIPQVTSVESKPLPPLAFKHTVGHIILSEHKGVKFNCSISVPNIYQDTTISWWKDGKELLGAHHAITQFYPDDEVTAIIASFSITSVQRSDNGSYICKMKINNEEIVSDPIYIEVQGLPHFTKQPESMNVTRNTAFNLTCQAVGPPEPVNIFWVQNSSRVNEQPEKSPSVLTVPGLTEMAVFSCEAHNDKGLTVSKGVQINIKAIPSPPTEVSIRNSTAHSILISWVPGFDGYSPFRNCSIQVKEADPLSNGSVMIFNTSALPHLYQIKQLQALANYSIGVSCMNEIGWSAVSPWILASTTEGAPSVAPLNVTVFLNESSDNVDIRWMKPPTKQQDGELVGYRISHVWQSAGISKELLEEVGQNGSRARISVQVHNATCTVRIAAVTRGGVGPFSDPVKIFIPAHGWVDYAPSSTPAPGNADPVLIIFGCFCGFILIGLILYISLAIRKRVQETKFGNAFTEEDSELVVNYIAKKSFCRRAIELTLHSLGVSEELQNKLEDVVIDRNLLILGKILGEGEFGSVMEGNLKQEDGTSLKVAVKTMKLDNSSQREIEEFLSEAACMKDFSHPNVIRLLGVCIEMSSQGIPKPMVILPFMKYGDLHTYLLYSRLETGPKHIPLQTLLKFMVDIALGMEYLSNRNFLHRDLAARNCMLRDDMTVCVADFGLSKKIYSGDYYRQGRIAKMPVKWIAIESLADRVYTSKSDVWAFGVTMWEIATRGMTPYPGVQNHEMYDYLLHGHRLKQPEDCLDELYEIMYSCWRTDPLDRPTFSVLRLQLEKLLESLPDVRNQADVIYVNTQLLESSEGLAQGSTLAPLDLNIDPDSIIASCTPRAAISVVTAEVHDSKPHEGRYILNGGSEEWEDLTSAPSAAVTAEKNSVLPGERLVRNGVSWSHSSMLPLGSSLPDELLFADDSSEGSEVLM

[2] = biological target: Hepatocyte growth factor receptor (Homo sapiens, UniProt P08581)
Aurora kinase B = Aurora kinase B (Homo sapiens, UniProt Q96GD4)
[3] = biological target: Tyrosine-protein kinase Lck (Homo sapiens, UniProt P06239)
[4] = biological target: T2, Proto-oncogene tyrosine-protein kinase Src (Homo sapiens, UniProt P12931)
[5] = biological target: Cyclin-dependent kinase 8 (Homo sapiens, UniProt P49336)
[6] = biological target: Tyrosine-protein kinase Fer (Homo sapiens, UniProt P16591); test: biochemical
[7] = biological target: T3, Dual specificity mitogen-activated protein kinase kinase 5 (Homo sapiens, UniProt Q13163); test: biochemical
T3 sequence (Q13163 whole entry): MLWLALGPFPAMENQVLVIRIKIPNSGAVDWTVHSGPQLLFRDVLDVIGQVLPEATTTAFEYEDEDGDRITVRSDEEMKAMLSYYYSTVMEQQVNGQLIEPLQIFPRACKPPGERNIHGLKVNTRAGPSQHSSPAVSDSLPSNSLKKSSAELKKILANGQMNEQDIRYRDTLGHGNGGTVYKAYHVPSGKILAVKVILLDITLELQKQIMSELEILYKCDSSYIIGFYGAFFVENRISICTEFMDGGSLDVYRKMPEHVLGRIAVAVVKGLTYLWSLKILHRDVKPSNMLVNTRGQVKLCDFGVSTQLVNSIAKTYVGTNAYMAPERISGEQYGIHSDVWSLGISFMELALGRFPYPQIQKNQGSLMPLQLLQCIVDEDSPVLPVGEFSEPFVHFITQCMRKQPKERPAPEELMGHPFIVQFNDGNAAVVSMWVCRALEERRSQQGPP

[8] = biological target: Tyrosine-protein kinase ABL1 (Homo sapiens, UniProt P00519); test: biochemical
[9] = biological target: T2, Proto-oncogene tyrosine-protein kinase Src; test: biochemical
B16-F10 [10] = test: Antitumor activity against mouse B16-F10 cells xenografted in Cbl-b+/+ mouse assessed as reduction in melanoma metastases in lungs at 0.5 mg/L, po administered for 16 days by haematoxylin and eosin staining based microscope analysis; type: functional, organism-based; conditions: time 16.0 day
B16-F10 [11] = test: Antitumor activity against mouse B16-F10 cells xenografted in Cbl-b+/- mouse assessed as reduction in melanoma metastases in lungs at 0.5 mg/L, po administered for 16 days by haematoxylin and eosin staining based microscope analysis; type: functional, organism-based; conditions: time 16.0 day
B16-F10 [12] = test: Antitumor activity against mouse B16-F10 cells xenografted in Cbl-b defective mouse assessed as reduction in melanoma metastases at 0.5 mg/L, po administered for 16 days by haematoxylin and eosin staining based microscope analysis; type: functional, organism-based; conditions: time 16.0 day
B16-F10 [13] = test: Antitumor activity against mouse B16-F10 cells xenografted in Cbl-b+/+ mouse assessed as coagulation at 0.5 mg/L, po administered for 16 days by coagulometer analysis; type: functional, organism-based; conditions: time 16.0 day
B16-F10 [14] = test: Antitumor activity against mouse B16-F10 cells xenografted in Cbl-b+/- mouse assessed as coagulation at 0.5 mg/L, po administered for 16 days by coagulometer analysis; type: functional, organism-based; conditions: time 16.0 day
RMA-S [15] = test: Cytotoxicity against RMA-S cells overexpressing Rae1 in Cbl-b+/+ mouse by flow cytometry analysis; type: functional, cell-based
RMA-S [16] = test: Cytotoxicity against RMA-S cells in Cbl-b+/+ mouse by flow cytometry analysis; type: functional, cell-based
4T1 = test: Anticoagulant activity against mouse 4T1 cells xenografted in Balb/c mouse assessed as prothrombin time at 0.5 mg/L, po administered for 16 days by coagulometer analysis (reference value: 15.10 +/- 1.46 sec); type: functional; conditions: time 16 day

T2 sequence (P12931 whole entry, looked up): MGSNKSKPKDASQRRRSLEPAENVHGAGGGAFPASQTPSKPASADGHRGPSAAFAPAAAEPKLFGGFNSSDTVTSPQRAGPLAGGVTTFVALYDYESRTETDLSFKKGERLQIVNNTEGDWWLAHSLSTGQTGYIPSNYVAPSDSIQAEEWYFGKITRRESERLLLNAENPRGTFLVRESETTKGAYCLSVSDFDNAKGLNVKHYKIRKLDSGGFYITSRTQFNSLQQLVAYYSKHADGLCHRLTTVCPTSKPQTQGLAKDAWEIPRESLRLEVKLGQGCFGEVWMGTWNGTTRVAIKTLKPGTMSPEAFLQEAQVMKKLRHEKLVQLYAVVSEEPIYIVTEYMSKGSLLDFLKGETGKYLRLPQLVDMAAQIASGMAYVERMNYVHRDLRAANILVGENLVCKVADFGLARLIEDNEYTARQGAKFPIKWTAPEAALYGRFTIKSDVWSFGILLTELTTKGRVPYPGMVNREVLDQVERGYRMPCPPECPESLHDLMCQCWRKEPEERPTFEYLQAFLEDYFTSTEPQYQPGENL
Sequence of Hepatocyte growth factor receptor (P08581 whole entry): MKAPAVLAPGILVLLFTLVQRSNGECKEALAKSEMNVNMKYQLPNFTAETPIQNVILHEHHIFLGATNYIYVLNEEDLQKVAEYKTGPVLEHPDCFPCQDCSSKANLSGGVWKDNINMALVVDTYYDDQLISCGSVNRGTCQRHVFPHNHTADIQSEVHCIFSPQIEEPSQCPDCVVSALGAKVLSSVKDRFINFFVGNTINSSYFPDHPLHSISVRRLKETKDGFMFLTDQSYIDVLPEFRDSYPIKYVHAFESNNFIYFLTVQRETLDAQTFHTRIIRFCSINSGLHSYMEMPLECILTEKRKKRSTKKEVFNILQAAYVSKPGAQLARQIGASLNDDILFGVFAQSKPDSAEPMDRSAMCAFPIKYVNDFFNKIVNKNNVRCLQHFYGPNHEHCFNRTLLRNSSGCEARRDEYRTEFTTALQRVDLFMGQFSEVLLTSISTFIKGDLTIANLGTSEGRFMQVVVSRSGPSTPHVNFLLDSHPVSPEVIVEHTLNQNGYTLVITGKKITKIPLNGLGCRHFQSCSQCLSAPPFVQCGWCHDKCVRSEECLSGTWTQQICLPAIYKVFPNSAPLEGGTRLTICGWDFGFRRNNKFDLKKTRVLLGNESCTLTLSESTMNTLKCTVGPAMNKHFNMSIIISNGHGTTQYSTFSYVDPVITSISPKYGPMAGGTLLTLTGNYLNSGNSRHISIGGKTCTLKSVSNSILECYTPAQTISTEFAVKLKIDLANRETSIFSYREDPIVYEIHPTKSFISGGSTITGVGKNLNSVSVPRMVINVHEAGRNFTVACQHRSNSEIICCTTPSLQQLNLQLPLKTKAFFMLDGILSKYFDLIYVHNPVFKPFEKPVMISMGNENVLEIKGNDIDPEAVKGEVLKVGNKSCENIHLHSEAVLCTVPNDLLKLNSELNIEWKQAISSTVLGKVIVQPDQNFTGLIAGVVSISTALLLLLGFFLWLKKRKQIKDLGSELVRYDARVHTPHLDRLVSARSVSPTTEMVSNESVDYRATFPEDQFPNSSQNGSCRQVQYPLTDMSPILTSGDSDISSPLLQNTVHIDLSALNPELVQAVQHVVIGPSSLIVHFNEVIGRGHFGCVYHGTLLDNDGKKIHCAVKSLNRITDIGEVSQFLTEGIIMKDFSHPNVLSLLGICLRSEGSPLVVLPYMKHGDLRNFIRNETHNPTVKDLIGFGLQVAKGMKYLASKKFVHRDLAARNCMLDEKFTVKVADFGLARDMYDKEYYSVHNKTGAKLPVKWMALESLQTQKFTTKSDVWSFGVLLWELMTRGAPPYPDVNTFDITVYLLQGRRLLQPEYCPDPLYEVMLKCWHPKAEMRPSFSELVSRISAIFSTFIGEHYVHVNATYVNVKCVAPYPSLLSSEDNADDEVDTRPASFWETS
Sequence of Cyclin-dependent kinase 8 (P49336 whole entry): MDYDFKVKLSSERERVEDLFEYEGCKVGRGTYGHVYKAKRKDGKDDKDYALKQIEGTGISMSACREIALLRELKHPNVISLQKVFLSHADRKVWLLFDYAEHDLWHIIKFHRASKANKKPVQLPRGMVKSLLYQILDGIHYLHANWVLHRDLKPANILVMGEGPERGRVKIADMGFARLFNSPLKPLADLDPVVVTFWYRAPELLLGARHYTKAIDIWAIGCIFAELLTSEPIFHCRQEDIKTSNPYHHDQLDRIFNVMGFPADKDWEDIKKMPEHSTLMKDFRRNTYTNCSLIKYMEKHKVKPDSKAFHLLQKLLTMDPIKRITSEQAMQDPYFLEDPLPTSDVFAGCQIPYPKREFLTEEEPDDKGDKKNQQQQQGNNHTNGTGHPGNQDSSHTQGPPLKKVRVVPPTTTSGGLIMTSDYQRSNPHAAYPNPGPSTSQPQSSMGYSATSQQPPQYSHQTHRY
Sequence of Tyrosine-protein kinase Lck (P06239 whole entry): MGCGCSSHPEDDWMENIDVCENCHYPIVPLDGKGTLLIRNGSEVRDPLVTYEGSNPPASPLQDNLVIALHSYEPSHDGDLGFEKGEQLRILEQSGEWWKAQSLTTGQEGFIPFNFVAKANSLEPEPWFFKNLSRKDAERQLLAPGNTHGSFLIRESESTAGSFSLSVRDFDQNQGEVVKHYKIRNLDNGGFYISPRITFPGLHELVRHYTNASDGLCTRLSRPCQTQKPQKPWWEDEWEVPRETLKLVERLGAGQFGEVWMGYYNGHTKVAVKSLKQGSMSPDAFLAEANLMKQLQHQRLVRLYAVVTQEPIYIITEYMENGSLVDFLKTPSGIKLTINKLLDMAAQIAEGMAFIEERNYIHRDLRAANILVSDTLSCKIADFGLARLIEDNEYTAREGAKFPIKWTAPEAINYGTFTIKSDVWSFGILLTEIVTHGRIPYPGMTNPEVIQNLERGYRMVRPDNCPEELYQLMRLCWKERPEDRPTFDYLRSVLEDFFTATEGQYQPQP
Sequence of Aurora kinase B (Q96GD4 whole entry): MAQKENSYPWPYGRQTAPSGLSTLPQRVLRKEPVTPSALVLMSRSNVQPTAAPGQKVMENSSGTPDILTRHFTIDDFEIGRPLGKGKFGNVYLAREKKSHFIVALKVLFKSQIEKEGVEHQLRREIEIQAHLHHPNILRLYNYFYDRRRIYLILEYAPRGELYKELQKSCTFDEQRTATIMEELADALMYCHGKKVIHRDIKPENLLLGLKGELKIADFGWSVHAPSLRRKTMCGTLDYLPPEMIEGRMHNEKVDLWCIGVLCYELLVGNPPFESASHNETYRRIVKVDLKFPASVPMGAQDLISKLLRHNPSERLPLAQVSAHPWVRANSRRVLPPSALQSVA
Sequence of Tyrosine-protein kinase ABL1 (P00519 whole entry): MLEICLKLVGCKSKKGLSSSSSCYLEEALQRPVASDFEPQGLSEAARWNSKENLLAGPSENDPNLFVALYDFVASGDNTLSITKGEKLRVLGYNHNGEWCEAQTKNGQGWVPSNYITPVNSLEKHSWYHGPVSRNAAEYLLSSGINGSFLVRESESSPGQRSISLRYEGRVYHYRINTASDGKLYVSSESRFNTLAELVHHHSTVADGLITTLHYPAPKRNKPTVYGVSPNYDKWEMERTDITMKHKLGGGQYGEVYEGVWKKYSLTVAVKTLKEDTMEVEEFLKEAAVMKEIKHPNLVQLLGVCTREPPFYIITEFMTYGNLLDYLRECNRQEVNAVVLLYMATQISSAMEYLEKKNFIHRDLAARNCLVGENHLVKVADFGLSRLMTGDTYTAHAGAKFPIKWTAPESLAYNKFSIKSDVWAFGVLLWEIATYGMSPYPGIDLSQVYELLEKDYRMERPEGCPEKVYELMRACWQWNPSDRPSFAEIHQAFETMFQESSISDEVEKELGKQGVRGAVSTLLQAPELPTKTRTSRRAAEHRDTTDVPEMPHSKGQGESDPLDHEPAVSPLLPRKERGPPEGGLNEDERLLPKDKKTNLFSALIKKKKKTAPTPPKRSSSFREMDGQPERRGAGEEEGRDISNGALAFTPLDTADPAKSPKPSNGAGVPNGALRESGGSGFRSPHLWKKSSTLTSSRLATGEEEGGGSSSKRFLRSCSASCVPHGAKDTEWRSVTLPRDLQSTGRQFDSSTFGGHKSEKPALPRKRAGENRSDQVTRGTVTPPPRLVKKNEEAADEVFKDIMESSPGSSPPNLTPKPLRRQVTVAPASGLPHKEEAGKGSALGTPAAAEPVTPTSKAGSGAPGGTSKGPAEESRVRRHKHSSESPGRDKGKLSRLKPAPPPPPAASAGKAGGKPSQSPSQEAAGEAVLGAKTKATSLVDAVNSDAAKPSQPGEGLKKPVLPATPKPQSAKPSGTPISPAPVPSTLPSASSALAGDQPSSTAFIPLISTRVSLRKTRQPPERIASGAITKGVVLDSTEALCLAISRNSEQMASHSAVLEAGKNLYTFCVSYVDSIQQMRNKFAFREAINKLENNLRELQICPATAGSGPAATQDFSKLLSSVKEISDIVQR

Q: `CCOc1cn(-c2ccc(F)cc2C)nc1C(=O)Nc1ccc(Oc2ccnc3cc(OC)c(OC)cc23)c(F)c1` was tested. Which IC50 [1] did it give?
A: Its IC50 is < 5 nM.

Q: What about the IC50 [2] of the same molecule?
A: Its IC50 is 35 nM.

Q: What about the IC50 (Aurora kinase B) of the same molecule?
A: The IC50 was 36 nM.

Q: What about the IC50 [3] of the same molecule?
A: Its IC50 is 51 nM.

Q: And the IC50 [4]?
A: Its IC50 is 338 nM.

Q: What about the IC50 [5] of the same molecule?
A: The IC50 was 3170 nM.

Q: And the Kd [6]?
A: Its Kd is 107 nM.

Q: And the Kd [7]?
A: The Kd was 124 nM.

Q: What about the Kd [8] of the same molecule?
A: The Kd was 154 nM.

Q: What about the Kd [9] of the same molecule?
A: The Kd was 217 nM.

Q: How did the Activity (B16-F10 [10]) turn out when `CC(=O)CC(c1ccccc1)c1c(O)c2ccccc2oc1=O` (stereo not drawn) [WARFARIN] was run?
A: The Activity was “Active”.

Q: What about the Activity (B16-F10 [11]) of the same molecule?
A: Its Activity is “Active”.

Q: And the Activity (B16-F10 [12])?
A: The Activity was “inactive”.

Q: What about the Activity (B16-F10 [13]) of the same molecule?
A: The Activity was “Active”.

Q: What about the Activity (B16-F10 [14]) of the same molecule?
A: The Activity was “Active”.

Q: What about the Activity (RMA-S [15]) of the same molecule?
A: The Activity was “Active”.

Q: And the Activity (RMA-S [16])?
A: The Activity was “Active”.

Q: What about the PT (4T1) of the same molecule?
A: Its PT is 19.13 s.
